# Legend:
# recombinant human NNMT = molecular target: T1, recombinant human NNMT (Homo sapiens, UniProt P40261); assay: In vitro NNMT enzyme inhibition assay (Promega MTase-Glo Methyltransferase Assay); assay type: biochemical; settings: compared with compound 1
# T1 sequence (P40261 1-264): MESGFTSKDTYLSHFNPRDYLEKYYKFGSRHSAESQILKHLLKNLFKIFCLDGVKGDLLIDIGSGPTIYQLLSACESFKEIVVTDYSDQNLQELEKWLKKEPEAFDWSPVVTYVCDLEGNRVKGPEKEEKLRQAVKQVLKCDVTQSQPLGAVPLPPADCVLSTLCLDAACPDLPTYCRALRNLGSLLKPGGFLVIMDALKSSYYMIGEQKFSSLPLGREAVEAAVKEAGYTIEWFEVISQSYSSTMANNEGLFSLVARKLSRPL
# Method: NNMT biochemical activity for was evaluated for compound 1 (FIG. 1), compound 2 (FIG. 2), compound 6 (FIG. 3), compound 8 (FIG. 4), compound 14 (FIG. 5), compound 16 (FIG. 6), and compound 13 (FIG. 12), using the Promega Mtase-Glo Methyltransferase Assay kit. Compounsd 4A (FIG. 7) and 4B (FIG. 8) were also tested in the assay.
# Assays were performed in a white, flat-bottomed 96 well plate. […] Reactions were performed for 20 minutes at room temperature. MTase-Glo reagent and MTase-Glo detection solution were added according to manufacturer's instructions and luminescence signal measured with a SpectraMax i3 plate reader and data analyzed with GraphPad Prism version 9. Scheme 10 depicts a visual summary of the Promega MTase-Glo Methyltransferase assay used to assess biochemical activity of novel inhibitors.
# in vitro = assay: in vitro
# Method: A master solution was prepared according to the following table.
# 40 μL of 10 mM NADPH solution was added to each well. The final concentrations of NADPH was 1 mM. The mixture was pre-warmed at 37° C. for 5 minutes. The negative control samples were prepared by replacing NADPH solutions with 40 μL of ultra-pure H2O. The negative control was used to exclude the misleading factor that resulted from instability of chemical itself. Samples with NADPH were prepared in duplicate. Negative controls were prepared in singlet.
# The reaction was started with the addition of 4 μL of 200 uM control compound or test compound solutions. […] The reaction was stopped by the addition of 4 volumes of cold acetonitrile with IS (100 nM alprazolam, 200 nM imipramine, 200 nM labetalol and 2 uM ketoprofen). Samples were centrifuged at 3, 220 g for 40 minutes. Aliquot of 90 μL of the supernatant was mixed with 90 μL of ultra-pure H2O and then used for LC-MS/MS analysis.
# For metabolite standard samples: 1 μL of 400 uM working solution was added to 89 μL master solution following by adding 400 μL of cold acetonitrile with internal standard (IS) (100 nM alprazolam, 200 nM Imipramine, 200 nM labetalol and 2 uM ketoprofen). Then 10 μL of 10 mM NADPH solution or ultra-pure H2O was added to the mixture. Samples were centrifuged at 3,220 g for 40 minutes to precipitate protein. Aliquots of 90 μL supernatant diluted by 90 μL of water was used for LC-MS/MS analysis.
# [1] = Mouse PK study (IV and PO) in female C57B16/N; assay type: in vivo; settings: for Tmax: iv
# Method: Doses were freshly prepared on the day of dosing. Vehicle compositions of each dose are listed below. For IV, an appropriate amount of the test article was dissolved in the vehicle with vortexing and/or sonication to achieve a solution with the intended concentration level. For PO, an appropriate amount of the test article was dissolved in the appropriate vehicle; vortex and/or sonication can be used to achieve a solution formulation with the intended concentration level. • IV: 0.5% Tween 80 in saline • PO: 0.2% Tween 80/10% PEG-300 in water. Adjust pH with IN hydrochloric acid to obtain a clear solution
# (§1) After dosing, 0.03 mL blood samples were collected from the dorsal metatarsal vein (0.2 mL at final time point via heart puncture) at the following time points: • IV: pre-dose, 0.0833, 0.25, 0.5, 1, 2, 4, 6, 8, 24 hours post dose • PO: pre-dose, 0.25, 0.5, 1, 2, 4, 6, 8, 24 hours post dose
# (§2) Blood from each sample was transferred into plastic micro centrifuge tubes with EDTAK2 as an anticoagulant. The blood samples were centrifuged at 4,000 g for 5 minutes at 4° C. to obtain plasma. Samples were immediately frozen in the upright position and stored at −75±15° C. prior to analysis.
# Samples were analyzed on a AB Sciex Triple Quad 5500 LC/MS/MS instrument using a Gemini 5 μm C18 110A 150×3 mm column (XBridge BEH C18 2.5 μm 4.6×75 mm in the case of JBSNF-000265) with the following equipment installed.
# The mobile phase A was 0.1% formic acid in water, and the mobile phase B was 95% acetonitrile in water (0.1% formic acid), delivered at 0.4 mL/min.
# Sample Preparation: The desired serial concentrations of working solutions were achieved by diluting stock solution of analyte with 50% acetonitrile in water solution. 5 μL of working solutions (1, 2, 3, 5, 10, 50, 100, 500, 1000 ng/ml) were added to 5 μL of the blank C57B16/N mouse plasma to achieve calibration standards of 1˜1000 ng/ml (1, 2, 3, 5, 10, 50, 100, 500, 1000 ng/ml) in a total volume of 10 μL. Four quality control samples at 3 ng/mL, 5 ng/mL, 100 ng/mL, and 800 ng/mL for plasma were prepared independently of those used for the calibration curves. These QC samples were prepared on the day of analysis in the same way as calibration standards.
# (§3) 10 μL of standards, 10 μL of QC samples and 10 μL of unknown samples (5 μL of plasma with 5 μL of blank solution) were added to 100 μL of acetonitrile (containing D4-1-MNA 50 ng/mL) for precipitating protein respectively. Then the samples were vortexed for 30 s. After centrifugation at 4 degree Celsius, 4,000 rpm for 15 min, the supernatant was diluted 3 times with water. 10 μL of diluted supernatant (20 μL in the case of JBSNF-000265) was injected into the LC/MS/MS system for quantitative analysis.
# 1-MNA = 1-MNA plasma PK parameters in mouse after dosing with compound; assay type: in vivo; settings: plasma 1-MNA, female C57B16/N
# Method: as §1, §2
# Sample Preparation: 1-Methylnicotinamide (1-MNA): The desired serial concentrations of working solutions were achieved by diluting stock solution of analyte with 50% acetonitrile in water solution. 5 μL of working solutions (1, 2, 3, 5, 10, 50, 100, 500, 1000 ng/mL) were added to 5 μL of water to achieve calibration standards of 1˜1000 ng/ml (1, 2, 3, 5, 10, 50, 100, 500, 1000 ng/ml) in a total volume of 10 μL. Four quality control samples at 3 ng/ml, 5 ng/mL, 100 ng/mL, and 800 ng/ml for water were prepared independently of those used for the calibration curves. These QC samples were prepared on the day of analysis in the same way as calibration standards.
# as §3, with “D4-1-MNA 100” for “D4-1-MNA 50”, “Celsius, 4000” for “Celsius, 4,000”, “water. 5” for “water. 10”, “supernatant” for “supernatant (20 μL in the case of JBSNF-000265)”
# [2] = mouse, plasma, 1 mg/kg (Table 5B, title: IV Dosage)
# [3] = mouse, plasma, 10 mg/kg (Table 5B, title: IV Dosage)
# [4] = mouse, plasma, 50 mg/kg (Table 5B, title: IV Dosage)
structure (smiles),measurement,setting,value
CNc1cc2cc[nH]c(=O)c2cn1,activity in the enzyme assay (in words),recombinant human NNMT,substrate (not inhibitor)
CNc1cc2ccnc(N)c2cn1 [Compound 1],Predicted hepatic CL,"in vitro; human, 2 uM",<5.12 mL/min/kg
same,CLint scaled at 2 uM,"in vitro; human, microsomes",< 6.79 mL/min/kg
same,half-life at 2 uM,"in vitro; human, microsomes",> 256 min
same,microsomal CLint at 2 uM,"in vitro; human, microsomes",< 5.42 µL/min/mg
same,Remaining (%) at 60 minutes,"in vitro; human, microsomes, 1 h, 2 uM",86.23%
same,% Q (mice): percent of compound remaining after 60 minutes of exposure to liver microsomes,"in vitro; male, C57B16/N, mouse, microsomes, 1 h, 2 uM",46.35%
same,Predicted hepatic CL,"in vitro; male, mouse, 2 uM",50.12 mL/min/kg
same,CLint scaled at 2 uM,"in vitro; male, mouse, microsomes",113 mL/min/kg
same,half-life at 2 uM,"in vitro; male, mouse, microsomes",53.6 min
same,microsomal CLint at 2 uM,"in vitro; male, mouse, microsomes",25.9 µL/min/mg
same,Remaining (%) at 60 minutes,"in vitro; male, mouse, microsomes, 1 h, 2 uM",46.35%
same,% Q (human): percent of compound remaining after 60 minutes of exposure to liver microsomes,"in vitro; microsomes, 1 h, 2 uM",86.23%
same,AUC% Extrap—obs,[1]; 3 mg/kg IV,0.666%
same,AUClast/D,[1]; 3 mg/kg IV,97 ng·h/mL per mg/kg
same,Cl_obs,[1]; 3 mg/kg IV,173 mL/min/kg
same,F,[1]; 10 mg/kg,10.3%
same,F,[1]; 50 mg/kg,32.4%
same,AUC(0-t),[1]; [2],97 ng·h/mL
same,Cmax,[1]; [2],3.66 ng/mL
same,half-life,[1]; [2],255 min
same,AUC(0-inf),"[1]; mouse, plasma, 3 mg/kg IV",292 ng·h/mL
same,AUC(0-t),"[1]; mouse, plasma, 3 mg/kg IV",290 ng·h/mL
same,C0,"[1]; mouse, plasma, 3 mg/kg IV",864 ng/mL
same,half-life,"[1]; mouse, plasma, 3 mg/kg IV",25.5 min
same,MRT inf,"[1]; mouse, plasma, 3 mg/kg IV, read-out: MRTInf—obs",20.8 min
same,AUC(0-t),[1]; [3],96.4 ng·h/mL
same,Cmax,[1]; [3],145 ng/mL
same,half-life,[1]; [3],143 min
same,AUC(0-t),[1]; [4],1540 ng·h/mL
same,Cmax,[1]; [4],1350 ng/mL
same,half-life,[1]; [4],473 min
same,Tmax,"[1]; mouse, plasma, 10 mg/kg",15 min
same,Tmax,"[1]; mouse, plasma, 50 mg/kg",20 min
same,AUClast of 1-MNA,1-MNA; 3 mg/kg IV,1463 ng·h/mL
same,AUClast of 1-MNA,1-MNA; 10 mg/kg PO,934 ng·h/mL
same,AUClast of 1-MNA,1-MNA; 50 mg/kg PO,814 ng·h/mL
CNc1cc2ccncc2cn1,activity in the enzyme assay (in words),recombinant human NNMT,significantly less active
